Test results reported in ChEMBL document CHEMBL4270672, “Synthesis and Biological Evaluation of Fused Tricyclic Heterocycle Piperazine (Piperidine) Derivatives As Potential Multireceptor Atypical Antipsychotics” (J Med Chem, 2018).
The source made the active and inactive calls. The rule behind the calls is not given here.

Tests used:
D(2) dopamine receptor = D(2) dopamine receptor (Homo sapiens, UniProt P14416)
Histamine H3 receptor = Histamine H3 receptor (Rattus norvegicus, UniProt Q9QYN8); experiment: Displacement of [3H] methylhistamine from histamine H3 receptor in rat cerebral cotex homogenates after 30 mins by liquid scintillation counting
[1] = biological target: 5-hydroxytryptamine receptor 1A (Homo sapiens, UniProt P08908)
Mus musculus [2] = settings: Kunming
Description: Antipsychotic activity in po dosed Kunming mouse assessed as reduction in apomorphine-induced climbing pretreated for 30 mins followed by apomorphine injection measured at 10 to 30 mins post dose

[3] = Oral bioavailability in Sprague-Dawley rat at 10 mg/kg by LC-MS/MS analysis; format: ADME, organism-based; settings: in vivo
Rattus norvegicus = experiment: Cognitive enhancing effect in Sprague-Dawley rat assessed as increase in total exploration time for novel objects in retention trial at 0.1 to 0.3 mg/kg, po administered 1 hr prior to acquisition trial measured 24 hrs post acquisition trial for 5 mins by novel object recognition test; format: functional, organism-based
[4] = Displacement of [3H] nisoxetine from NET in rat hippocampal membrane homogenates after 8 hrs by liquid scintillation counting; format: cell membranes
[5] = biological target: 5-hydroxytryptamine receptor 2A (Rattus norvegicus, UniProt P14842); experiment: Displacement of [3H]-ketanserine from serotonin 5-HT2A receptor in rat brain cortex homogenates incubated for 30 mins by liquid scintillation counting
[6] = biological target: Sodium-dependent dopamine transporter (Rattus norvegicus, UniProt P23977); experiment: Displacement of [3H] WIN35,428 from rat striatum homogenate DAT after 8 hrs mins by liquid scintillation counting
Mus musculus [7] = experiment: Induction of serum prolactin levels in Kunming mouse at 0.6 to 5.4 mg/kg, po administered for 28 days measured at 180 mins post last dose by EIA; format: organism-based; settings: in vivo, 3 h

Histamine H3 receptor, sequence (Q9QYN8 whole entry): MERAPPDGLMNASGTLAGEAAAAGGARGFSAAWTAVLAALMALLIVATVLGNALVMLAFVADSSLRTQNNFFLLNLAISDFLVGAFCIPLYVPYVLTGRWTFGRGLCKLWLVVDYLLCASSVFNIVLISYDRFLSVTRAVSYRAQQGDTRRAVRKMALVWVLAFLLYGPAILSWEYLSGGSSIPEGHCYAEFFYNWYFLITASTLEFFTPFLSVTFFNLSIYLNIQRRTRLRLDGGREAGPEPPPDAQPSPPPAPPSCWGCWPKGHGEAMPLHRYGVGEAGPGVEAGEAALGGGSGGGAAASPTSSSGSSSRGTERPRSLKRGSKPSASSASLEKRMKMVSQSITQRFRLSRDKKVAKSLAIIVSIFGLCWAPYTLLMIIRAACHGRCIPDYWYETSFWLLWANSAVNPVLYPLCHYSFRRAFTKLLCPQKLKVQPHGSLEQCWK
Sodium-dependent dopamine transporter, sequence (P23977 whole entry): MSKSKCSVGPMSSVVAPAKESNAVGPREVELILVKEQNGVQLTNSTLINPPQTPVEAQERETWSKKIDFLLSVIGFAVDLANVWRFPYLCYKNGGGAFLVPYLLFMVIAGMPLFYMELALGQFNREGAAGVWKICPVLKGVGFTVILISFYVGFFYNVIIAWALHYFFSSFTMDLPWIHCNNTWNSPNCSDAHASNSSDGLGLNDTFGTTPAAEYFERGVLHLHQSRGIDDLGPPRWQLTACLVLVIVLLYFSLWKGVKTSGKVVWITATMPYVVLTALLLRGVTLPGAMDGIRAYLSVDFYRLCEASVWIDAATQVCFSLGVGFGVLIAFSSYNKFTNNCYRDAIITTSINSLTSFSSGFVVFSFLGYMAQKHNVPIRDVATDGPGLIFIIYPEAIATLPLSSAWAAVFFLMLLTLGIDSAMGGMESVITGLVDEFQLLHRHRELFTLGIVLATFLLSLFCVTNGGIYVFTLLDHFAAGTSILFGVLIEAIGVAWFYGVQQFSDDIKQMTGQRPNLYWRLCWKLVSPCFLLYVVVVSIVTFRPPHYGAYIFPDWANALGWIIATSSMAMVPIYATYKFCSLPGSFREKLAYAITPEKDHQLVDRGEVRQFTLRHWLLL
5-hydroxytryptamine receptor 2A, sequence (P14842 whole entry): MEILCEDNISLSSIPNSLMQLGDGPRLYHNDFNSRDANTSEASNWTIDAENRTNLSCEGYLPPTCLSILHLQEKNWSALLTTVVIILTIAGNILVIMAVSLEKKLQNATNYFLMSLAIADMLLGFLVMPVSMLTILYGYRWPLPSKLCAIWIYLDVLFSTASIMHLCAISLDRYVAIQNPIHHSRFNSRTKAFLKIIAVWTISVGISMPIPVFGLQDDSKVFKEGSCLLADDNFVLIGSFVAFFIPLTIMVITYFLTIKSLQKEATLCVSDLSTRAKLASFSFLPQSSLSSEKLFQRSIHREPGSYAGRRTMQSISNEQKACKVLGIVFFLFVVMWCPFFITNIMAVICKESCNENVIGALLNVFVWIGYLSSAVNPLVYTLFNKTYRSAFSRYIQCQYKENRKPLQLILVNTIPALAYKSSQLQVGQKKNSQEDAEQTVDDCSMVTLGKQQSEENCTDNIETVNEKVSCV
D(2) dopamine receptor, sequence (P14416 whole entry): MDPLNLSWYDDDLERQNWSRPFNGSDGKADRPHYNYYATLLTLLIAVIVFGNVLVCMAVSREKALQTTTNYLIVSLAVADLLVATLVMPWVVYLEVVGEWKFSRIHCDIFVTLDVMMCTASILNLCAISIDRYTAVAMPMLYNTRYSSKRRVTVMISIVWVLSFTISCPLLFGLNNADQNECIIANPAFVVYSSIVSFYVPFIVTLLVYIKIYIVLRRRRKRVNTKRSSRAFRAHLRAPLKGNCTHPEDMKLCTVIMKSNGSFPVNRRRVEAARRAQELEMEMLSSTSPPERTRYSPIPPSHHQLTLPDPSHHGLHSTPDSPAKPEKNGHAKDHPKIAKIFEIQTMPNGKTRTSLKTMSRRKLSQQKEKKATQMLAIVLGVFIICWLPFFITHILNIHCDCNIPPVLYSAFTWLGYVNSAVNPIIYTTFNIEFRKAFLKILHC
5-hydroxytryptamine receptor 1A, sequence (P08908 whole entry): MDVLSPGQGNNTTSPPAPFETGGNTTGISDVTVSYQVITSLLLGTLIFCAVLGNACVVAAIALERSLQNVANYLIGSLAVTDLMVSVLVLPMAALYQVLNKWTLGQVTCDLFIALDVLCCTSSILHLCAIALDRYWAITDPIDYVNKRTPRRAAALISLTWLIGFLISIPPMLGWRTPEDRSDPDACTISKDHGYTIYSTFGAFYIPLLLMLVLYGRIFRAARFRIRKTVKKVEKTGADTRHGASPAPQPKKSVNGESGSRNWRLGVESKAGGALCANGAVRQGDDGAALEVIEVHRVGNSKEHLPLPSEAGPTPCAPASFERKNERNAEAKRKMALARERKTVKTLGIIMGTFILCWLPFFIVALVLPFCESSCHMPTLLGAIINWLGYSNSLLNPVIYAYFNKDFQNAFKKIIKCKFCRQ

O=C(CCCCN1CCC(c2noc3cc(F)ccc23)CC1)c1cc2c3c(c1)CCN3C(=O)CC2
IC50 (D(2) dopamine receptor): 9.02 nM
Ki (Histamine H3 receptor): > 1000 nM
IC50 [1]: 588 nM
Activity (Mus musculus [2]): Dose-dependent effect
bioavailability [3]: 58.8%
Activity (Rattus norvegicus): Active
Ki [4]: > 1000 nM
Ki [5]: 0.72 nM
Ki [6]: > 1000 nM
Activity (Mus musculus [7]): Non-Toxic
